Entries after “also recorded” stand apart in the source; their conditions may differ. Read-outs that look alike come from different tables or passages of the source.
What was measured:
SARS-CoV-2 pseudovirus [1] = assay: microbe, parasite or virus in culture; type: cell-based; settings: for EC50: Vero cells, luciferase signal, mean ± SEM of 3 tests, read-out: EC50, inhibition of SARS-CoV-2 pseudovirus entry in Vero cells; for Inhibition of pseudovirus entry in Vero cells (in words): cathepsin-dependent endosomal pathway
SARS-CoV-2 [2] = assay: microbe, parasite or virus in culture; type: cell-based; settings: for EC50: Vero E6 cells, three days, XTT, read-out: EC50, CPE reduction, SARS-CoV-2 in Vero E6 cells
SARS-CoV-2 3CL^Pro = SARS-CoV-2 3CL^Pro (Severe acute respiratory syndrome coronavirus 2, UniProt P0DTD1); assay: biochemical; type: biochemical
in vitro = settings: human
VeroE6 cells = assay: Cytotoxicity in mock-infected VeroE6 cells (XTT); type: cell-based, African green monkey
[3] = Cytotoxicity in mock-infected VeroE6 cells (XTT); type: cell-based, African green monkey; settings: African green monkey; mock-infected Vero E6 cells, three days, XTT
[4] = target: T1, human recombinant cathepsin L (Homo sapiens, UniProt P07711); assay: biochemical; type: biochemical
T1 construct: made in house; host or cells: Escherichia coli
T1 sequence (P07711 114-333): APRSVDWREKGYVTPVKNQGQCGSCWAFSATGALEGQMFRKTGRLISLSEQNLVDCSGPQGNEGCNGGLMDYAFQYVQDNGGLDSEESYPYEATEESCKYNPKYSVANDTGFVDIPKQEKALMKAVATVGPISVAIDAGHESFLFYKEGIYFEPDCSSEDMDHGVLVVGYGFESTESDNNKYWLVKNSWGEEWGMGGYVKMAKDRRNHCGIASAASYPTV
Procedure: Cathepsin L inhibition was assessed as reported. Briefly, human recombinant cathepsin L was expressed in Escherichia coli[33]. Enzymatic activity was determined in 100 mM acetate buffer (pH 5.5) containing 0.1% PEG 8000, 5 mM cysteine and 1.5 mM EDTA. The enzyme was first activated in assay buffer for 5 min at 37 °C, after which it was added to the wells of a black microplate containing the Z-Phe-Arg-AMC substrate (Bachem) and compounds. Formation of the fluorescent cleavage product was monitored for 50 min at 37 °C, using a Tecan Infinit M1000 spectrofluorimeter set at 460 nm emission and 380 nm excitation wavelength. All assay mixtures contained 5% (v/v) DMSO and 0.01% Triton X-100 to prevent false-positive inhibition due to formation of compound aggregates. All measurements were performed in triplicate and repeated twice. The relative inhibition was calculated using the equation: Relative inhibition (%) = 100(1 − vi/vo), where vi and vo designate the reaction velocities in the presence and absence of inhibitor, respectively. IC50 values were determined from nine data points at different inhibitor concentrations.

SARS-CoV-2 [5] = assay: microbe, parasite or virus in culture; type: cell-based; settings: for EC50: Calu-3 cells, three days, XTT, read-out: EC50, CPE reduction, SARS-CoV-2 in Calu-3 cells
[6] = Cytotoxicity in mock-infected HEL cells (MTS); type: cell-based, human; settings: human; mock-infected HEL cells, MTS, mean of 2–3 tests
SARS-CoV-2 pseudovirus [7] = assay: microbe, parasite or virus in culture; type: cell-based; settings: for Inhibition of pseudovirus entry in A549-AT cells (in words): TMPRSS2-mediated uptake; for EC50: A549-AT cells (ACE2 and TMPRSS2), luciferase signal, mean ± SEM of 3 tests, read-out: EC50, inhibition of SARS-CoV-2 pseudovirus entry in A549-AT cells
HCoV-229E = assay: CPE reduction assay, HCoV-229E in HEL cells; type: cell-based; settings: for EC50: MTS, mean of 2–3 tests
[8] = system: Klebsiella pneumoniae ST258 clone K 160/09; assay: MIC against Gram-negative strain; settings: Klebsiella pneumoniae ST258 clone K 160/09
[9] = system: Pseudomonas aeruginosa ATCC 27853; assay: MIC against Gram-negative strain; settings: ATCC27853
E. faecium = assay: microbe, parasite or virus in culture; type: cell-based
S. epidermidis = assay: microbe, parasite or virus in culture; type: cell-based
[10] = system: Acinetobacter baumannii ATCC BAA1605; assay: MIC against Gram-negative strain; settings: Acinetobacter baumannii ATCC BAA1605
HEL cells = assay: Cytotoxicity in mock-infected HEL cells (MTS); type: cell-based, human; settings: mock-infected HEL cells, MTS, mean of 2–3 tests
S. aureus = assay: MIC, broth microdilution; type: cell-based
E. faecalis = assay: MIC, broth microdilution; type: cell-based
S.pyogenes = assay: MIC, broth microdilution; type: cell-based
S. haemolyticus = assay: MIC, broth microdilution; type: cell-based
Calu-3 cells = assay: Cytotoxicity in mock-infected Calu-3 cells (XTT); settings: read-out: CC50, Calu-3 cells, three days
[11] = system: Escherichia coli ATCC 25218; assay: MIC against Gram-negative strain; settings: ATCC25218
[12] = Severe acute respiratory syndrome-related coronavirus

For `O=C(O)CCC(F)(F)C(F)(F)C(F)(F)C(F)(F)C(F)(F)C(F)(F)C(F)(F)C(F)(F)F` [Compound 14], the EC50 (SARS-CoV-2 pseudovirus [1]; [12]) was 13 ± 5 µM, the “Inhibition of pseudovirus entry in Vero cells (in words)” value (SARS-CoV-2 pseudovirus [1]) was “inhibited both entry routes” and the EC50 (SARS-CoV-2 [2]; Severe acute respiratory syndrome coronavirus 2, Vero C1008, 72 h) was 19 ± 1.5 µM. The “Reduction of the CPE of SARS-CoV-2 in VeroE6 cells (in words)” value (SARS-CoV-2 [2]; VeroE6 cells) was “did show antiviral activity”, the inhibition at 200 µM (SARS-CoV-2 3CL^Pro) was 12 ± 2% and the CC50 (in vitro) was ~53 µM. For the same molecule, the “Toxicity in VeroE6 cells (in words)” value (VeroE6 cells; VeroE6 cells) was “quite toxic”, the CC50 [3] was 39 ± 1.4 µM and the IC50 ([4]; pH 5.5, Z-Phe-Arg-AMC substrate, read-out: Cathepsin L IC50) was > 500 µM. The “Activity against SARS-CoV-2 in Calu-3 cells (in words)” value (SARS-CoV-2 [5]) was “active”, the EC50 (SARS-CoV-2 [5]; Severe acute respiratory syndrome coronavirus 2, 72 h) was 46 ± 1.9 µM and the CC50 [6] was > 100 µM. The “Inhibition of pseudovirus entry in A549-AT cells (in words)” value (SARS-CoV-2 pseudovirus [7]) was “inhibited both entry routes”, the EC50 (SARS-CoV-2 pseudovirus [7]; [12]) was 24 ± 6 µM and the EC50 (HCoV-229E; Human coronavirus 229E) was 69 µM.

In the case of teicoplanin [reference compound], the EC50 (SARS-CoV-2 pseudovirus [1]) is reported as 21 ± 5 µM, the “Inhibition of pseudovirus entry in Vero cells (in words)” value (SARS-CoV-2 pseudovirus [1]) is reported as “moderately active” and the EC50 (SARS-CoV-2 [2]) is reported as 16 ± 1.7 µM. The MIC [8] was 256 mg/L, the “3CL^Pro % inhibition at 200 µM” value (SARS-CoV-2 3CL^Pro; at 200 µM) was 13 ± 8% and the MIC [9] was 256 mg/L. The CC50 (VeroE6 cells; mock-infected Vero E6 cells, three days, XTT) was > 100 µM, the “Cathepsin L inhibition (in words)” value [4] was “inactive” and the “Cathepsin L inhibition at 50 µM” value ([4]; at 50 µM) was 5% at 50 µM. The “Activity against SARS-CoV-2 in Calu-3 cells (in words)” value (SARS-CoV-2 [5]) was “inactive; also recorded: does not inhibit”, the EC50 (SARS-CoV-2 [5]) was > 100 µM and the “Average MIC value” (E. faecium; E. faecium VAN^R,TEI^R/VanA, 8 strains) was > 64 mg/L. The “Average MIC value” (E. faecium; E. faecium VAN^S, TEI^S, 1 strain) was 0.5 mg/L, the MIC value (E. faecium; E.faecium E335, VAN,TEI,LNZ/VanA) was >64 µg/mL and the MIC value (E. faecium; E.faecium E355, VAN,TEI,LNZ/VanA) was >64 µg/mL. For the same molecule, the MIC value (E. faecium; E.faecium E832, VAN,TEI,LNZ/VanA) was >64 µg/mL, the MIC value (E. faecium; E.faecium E854, VAN,TEI,LNZ/VanA) was >64 µg/mL and the MIC value (E. faecium; E.faecium E859, VAN,TEI,LNZ/VanA) was >64 µg/mL. The MIC value (E. faecium; E.faecium E1114, VAN,TEI,LNZ/VanA) was >64 µg/mL, the MIC value (E. faecium; E.faecium E1131, VAN,TEI,LNZ/VanA) was >64 µg/mL and the MIC value (E. faecium; E.faecium E1132, VAN,TEI,LNZ/VanA) was >64 µg/mL. For the same molecule, the MIC value (E. faecium; E.faecium TX0016) was 0,5 µg/ml, the “Average MIC value” (S. epidermidis; S. epidermidis mecA, 6 strains) was 26.7 mg/L and the MIC value (S. epidermidis; S.epidermidis ORI_R1, mecA) was 32 mg/L. For the same molecule, the MIC value (S. epidermidis; S.epidermidis ORI_R2, mecA) was 16 mg/L, the MIC value (S. epidermidis; S.epidermidis ORI_R3, mecA) was 32 mg/L and the MIC value (S. epidermidis; S.epidermidis ORI_R4, mecA) was 16 mg/L. The MIC value (S. epidermidis; S.epidermidis TEI_R1, mecA) was 32 mg/L, the MIC value (S. epidermidis; S.epidermidis TEI_R2, mecA) was 32 mg/L and the MIC [10] was 128 mg/L. The CC50 (HEL cells) was > 100 µM, the MIC value (S. aureus; S. aureus 73OL, MRSA) was 0,5 µg/ml and the MIC value (S. aureus; S. aureus 214OL, MRSA) was 2 µg/mL. The MIC value (S. aureus; S. aureus 1041OL, MRSA) was 1 µg/mL, the MIC value (S. aureus; S. aureus A6918, MRSA) was 1 µg/mL and the MIC value (S. aureus; S. aureus A6919, MRSA) was 0,5 µg/ml. For the same molecule, the MIC value (S. aureus; S. aureus ATCC29213, MSSA) was 0,5 µg/ml, the “Average MIC value” (S. aureus; S. aureus CA-MRSA, 1 strain) was 0.125 mg/L and the “Average MIC value” (S. aureus; S. aureus MRSA, 7 strains) was 1.43 mg/L. The MIC value (S. aureus; S. aureus MSSA476, MSSA) was 0,25 µg/ml, the “Average MIC value” (S. aureus; S. aureus MSSA, 4 strains) was 0.375 mg/L and the MIC value (S. aureus; S. aureus Mu50, MRSA) was 4 µg/mL. For the same molecule, the MIC value (S. aureus; S. aureus N315, MRSA) was 1 µg/mL, the MIC value (S. aureus; S. aureus Newman, MSSA) was 0,25 µg/ml and the MIC value (S. aureus; S. aureus SA564, MSSA) was 0,5 µg/ml. For the same molecule, the MIC value (S. aureus; S. aureus USA300, CA-MRSA) was 0,125 µg/ml, the “Average MIC value” (E. faecalis; E. faecalis VAN^R,TEI^R/VanA, 1 strain) was > 64 mg/L and the “Average MIC value” (E. faecalis; E. faecalis VAN^S, TEI^S, 2 strains) was 0.25 mg/L. The MIC value (E. faecalis; E.faecalis JH2-2) was 0,25 µg/ml, the MIC value (E. faecalis; E.faecalis OG1RF) was 0,25 µg/ml and the MIC value (E. faecalis; E.faecalis V583, VAN,TEI/VanA) was >64 µg/mL. The MIC value (S.pyogenes; S.pyogenes H232) was 0,03125 µg/ml, the MIC value (S.pyogenes; S.pyogenes H550) was 0,25 µg/ml and the MIC value (S.pyogenes; S.pyogenes H578) was 0,25 µg/ml. The “Average MIC value” (S. haemolyticus; S. haemolyticus mecA, 6 strains) was 112 mg/L, the MIC value (S. haemolyticus; S.haemolyticus DALB_R1, mecA) was 128 mg/L and the MIC value (S. haemolyticus; S.haemolyticus DALB_R2, mecA) was 256 mg/L. It also gave an MIC value (S. haemolyticus; S.haemolyticus DALB_R3, mecA) of 32 mg/L, an MIC value (S. haemolyticus; S.haemolyticus DALB_R4, mecA) of 64 mg/L and an MIC value (S. haemolyticus; S.haemolyticus DALB_R5, mecA) of 128 mg/L. The MIC value (S. haemolyticus; S.haemolyticus ORI_R1, mecA) was 64 mg/L, the CC50 (Calu-3 cells) was > 100 µM and the EC50 (SARS-CoV-2 pseudovirus [7]) was > 125 µM. The “Inhibition of pseudovirus entry in A549-AT cells (in words)” value (SARS-CoV-2 pseudovirus [7]) was “inactive”, the “Activity against HCoV-229E CPE (in words)” value (HCoV-229E) was “inactive” and the EC50 (HCoV-229E) was > 100 µM. The MIC [11] was 256 mg/L.
